Each structure is given as a SMILES string. Read-outs that look alike come from different tables or passages of the source.

Assay [1] concerns Phytophthora infestans. It is filed as in vivo. The note with it: systemic; preparation poured onto standard soil of young tomato plants; inoculated 3 days after treatment; 100% rel. humidity, ca. 20°C; evaluated 3 days after inoculation; compared with prior-art comparison substances.
Assay [2] relates to Phytophthora infestans. It is filed as in vivo. The settings on record: protective; young tomato plants sprayed to dripping wet, then inoculated with spore suspension; 100% rel. humidity, ca. 20°C; evaluated 3 days after inoculation; compared with prior-art comparison substances.

On to `C#CCOCC(=O)N(C=C)c1c(C)cccc1C` [Beispiel 9, N-Propargyloxyacetyl-N-vinyl-2,6-dimethylanilin], for which the Wirksamkeit result with Phytophthora infestans [1] is “deutliche Überlegenheit in der Wirksamkeit gegenüber dem Stand der Technik”.

Take `C=C(C)N(C(=O)COC)c1c(C)cccc1C` [Beispiel 1, N-Me-^1 thoxyacetyl-N-(1-methylvinyl)-2,6-dimethylanilin]: the Wirksamkeit result with Phytophthora infestans [1] and with Phytophthora infestans [2] was “deutliche Überlegenheit in der Wirksamkeit gegenüber dem Stand der Technik” in each case.

Regarding `C=C(C)N(C(=O)Cn1cncn1)c1c(C)cccc1C` [Beispiel 8, N-(1-Methylvinyl)-N-(1,2,4-triazol-1-yl-acetyl)-2,6-dimethylanilin], the Wirksamkeit result in the assay with Phytophthora infestans [2] was “deutliche Überlegenheit in der Wirksamkeit gegenüber dem Stand der Technik”.

Values taken from patent EP0075167B1 (priority 1981, dated 1983).
